Laboratory results taken from ChEMBL document CHEMBL4000202, “Identification of a diverse synthetic abietane diterpenoid library for anticancer activity” (Bioorg Med Chem Lett, 2017).

What was measured:
Format in all cases: functional, cell-based
A549 = assay: Cytotoxic activity against human A549 cells assessed as reduction in cell viability after 72 hrs by SRB assay; conditions: A549, 72 h
SK-OV-3 = assay: Cytotoxic activity against human SKOV3 cells assessed as reduction in cell viability after 72 hrs by SRB assay; conditions: SK-OV-3, 72 h
PC-3 = assay: Cytotoxic activity against human PC3 cells assessed as reduction in cell viability after 72 hrs by SRB assay; conditions: PC-3, 72 h

Row | SMILES | IC50 (A549) [µM] | IC50 (SK-OV-3) [µM] | IC50 (PC-3) [µM]
1 | COc1c(C(C)C)ccc2c1CC[C@H]1C(=O)CCC[C@]21C | > 100 | > 100 | > 100
2 | COC(=O)[C@]1(C)CCC[C@]2(C)c3ccc(C(C)C)c([N+](=O)[O-])c3CC[C@@H]12 | > 100 | > 100 | > 100
3 | C=CCc1ccc2c(c1O)C(=O)C[C@H]1C3=C(CC[C@]21C)C(=O)OC3 | 95.8 | 39.4 | 68
4 | C[C@]12CC=C3C(=O)OC[C@@H]3[C@@H]1CCc1ccccc12 | > 100 | > 100 | > 100
5 | C=C1C(=O)CC[C@]2(C)c3cccc(OC)c3CC[C@@H]12 | 5.47 | 3.31 | 5.01
6 | COC(=O)C1=C[C@@H]2CCc3c(ccc(C(C)C)c3OC)[C@@]2(C)CC1 | > 100 | > 100 | > 100
7 | COc1cccc2c1CC[C@H]1[C@H]3COC(=O)[C@@]3(O)C(=O)C[C@]21C | > 100 | > 100 | > 100
8 | COc1c(C(C)C)ccc2c1CC[C@H]1[C@H]3COC(=O)[C@H]3CC[C@]21C | > 100 | > 100 | > 100
9 | C=C1CCC[C@]2(C)c3ccc(C(C)C)c(OC)c3CC[C@@H]12 | 99.1 | > 100 | > 100
10 | COc1c(C(C)C)ccc2c1CC[C@H]1[C@@H]3COC(=O)[C@@H]3CC[C@]21C | > 100 | > 100 | > 100
11 | C=CCc1cc(C(C)C)c(O)c2c1[C@@]1(C)CCC3=C(COC3=O)[C@@H]1CC2=O | 97.5 | 87.1 | 95.1
12 | COc1c(C(C)C)ccc2c1CC[C@H]1c3cocc3CC[C@]21C | 27.4 | 21.3 | 19.3
13 | COc1c(C(C)C)ccc2c1CC=C1C3=C(CCC12C)C(=O)OC3 (single isomer, unassigned) | 74.9 | 24 | 48
14 | CC(C)c1ccc2c(c1O)CC[C@H]1C3=C(CC[C@]21C)C(=O)OC3 [TRIPTOPHENOLIDE] | > 100 | > 100 | > 100
15 | COc1cccc2c1CC[C@H]1C3=C(CC[C@]21C)C(=O)OC3 | > 100 | > 100 | > 100
16 | CC(C)(C)[Si](C)(C)O[C@@H]1CC[C@]2(C)c3ccccc3CC[C@H]2[C@H]1CO | > 100 | > 100 | > 100
17 | COc1c(C(C)C)ccc2c1C=C[C@H]1C3=C(CC[C@]21C)C(=O)OC3 | > 100 | > 100 | > 100
18 | C=CCOc1cccc2c1C(=O)C[C@H]1C3=C(CC[C@]21C)C(=O)OC3 | 89.4 | > 100 | > 100
19 | COc1c(C(C)C)ccc2c1CC[C@H]1[C@@H](CO)[C@H](O)CC[C@]21C | > 100 | > 100 | > 100
20 | COC(=O)[C@]1(C)CCC[C@]2(C)c3ccc(C(C)C)c(OC)c3C(=O)C[C@@H]12 | > 100 | > 100 | 99.4
21 | COc1c(C(C)C)ccc2c1CC[C@H]1C(=O)CCC[C@]21CO[N+](=O)[O-] | > 100 | > 100 | > 100
22 | CC(C)c1ccc2c(c1O)C(=O)C[C@H]1C3=C(CC[C@]21C)C(=O)OC3 | 77.3 | 42.5 | 58
23 | COC(=O)[C@]1(C)CCC[C@]2(C)c3ccc(C(C)C)c(OC)c3[C@@H](O)C[C@@H]12 | 85.7 | 51.9 | 64.2
24 | C=C1C(=C(SC)SC)CC[C@]2(CO)c3ccc(C(C)C)c(OC)c3CC[C@@H]12 | 53.8 | 32.9 | 50.1
25 | COC(=O)[C@]1(C)CCC[C@@]2(C)[C@H]1CC=C1[C@@H]2CC[C@](O)(C(C)C)[C@H]1O | 92.4 | 92.9 | > 100
